Measured values as given in ChEMBL document CHEMBL1144534, “Molecular modeling of some 1H-benzimidazole derivatives with biological activity against Entamoeba histolytica: a comparative molecular field analysis study” (Bioorg Med Chem, 2007).
pIC50: −log10 of the molar value.

Tested on: Entamoeba histolytica
Assay: Antiamoebic activity against Entamoeba histolytica
Format: functional, organism-based

Structure (SMILES) | pIC50
FC(F)(F)c1nc2cc(Br)ccc2[nH]1 | 5.88
Cn1c(N)nc2ccc(Cl)cc21 | 6.61
Cn1c(S)nc2ccc(Cl)cc21 | 5.42
FC(F)(F)C(F)(F)c1nc2c(Br)c(Br)c(Br)c(Br)c2[nH]1 | 6.67
FC(F)(F)c1nc2cc(Br)c(Br)cc2[nH]1 | 6.37
FC(F)(F)C(F)(F)c1nc2cc(Cl)c(Cl)cc2[nH]1 | 6.68
CSc1nc2ccc(Cl)cc2n1C | 6.24
CSc1nc2cc(Cl)c(Cl)cc2n1C | 5.98
FC(F)(F)c1nc2c(Br)c(Br)c(Br)c(Br)c2[nH]1 | 6.52
O=[N+]([O-])c1cc2nc(C(F)(F)F)[nH]c2cc1[N+](=O)[O-] | 5.87
Cc1nc2ccc(Cl)cc2n1C | 6.69
CSc1nc2ccccc2n1C | 6.71

Compounds with a higher pIC50, results first:

pIC50 | Structure (SMILES)
7.43 | Cn1c(N)nc2cc(Cl)c(Cl)cc21
7.30 | FC(F)(F)c1nc2c(Br)cc(Br)cc2[nH]1
6.89 | Cn1c(S)nc2cc(Cl)c(Cl)cc21
8.30 | Cc1nc2cc(Cl)ccc2n1C
7.89 | Cc1nc2cc(Cl)c(Cl)cc2n1C
7.43 | CSc1nc2cc(Cl)ccc2n1C
8.22 | Cn1c(S)nc2ccccc21
7.21 | Cc1nc2ccccc2n1C
8.00 | Cn1c(S)nc2cc(Cl)ccc21
